# Assay results: patent US7491505B2, “Method for analyzing tumor aggressivity comprising measurement of polymerized actin” (Bioalliance Pharma, priority 2002, dated 2009)
# Test system: polymerized actin in lysate of NIH 3T3 EF cells
# Test: Measurement of polymerized actin in the steady state (STAFI) and Kobs in cellular lysate by static fluorescence polarization
# Format: biochemical, murine
# Conditions: NIH 3T3 EF lysate
# Description: The result of the test is a plateau fluorescence anisotropy value (<<STAFI>>) corresponding to the quantity of polymerized actin in the steady state and an apparent constant (Kobs) for actin polymerization resulting from the progressive incorporation of marked actin monomers over time until attainment of the steady state, that is the plateau of the curve.
# By use of the GraphPad Prism® version 3 Software (GraphPad Software, Inc., San Diego, Calif.), for biostatistics, curve fitting, and scientific graphing, the experimental data are used to generate a curve adjusted to a 1st order equation such that: Y=ΔmA max(1−e^−k·t) where
# The technique of fluorescence polarization, also called static fluorescence anisotropy enables the obtaining of a value dependent on the size of the fluorescent molecule and the number of fluorescent molecular complexes. […] The level of this plateau, called <<STAFI>> reflects the quantity of F at the steady state, that is, the […], and the speed of reaching the plateau depends on the rapidity with which these filaments are formed. […]
# At the time of the test, the solution of marked actin monomers is diluted to 1/3 in G solution. The apparatus used is a Beacon® 2000 Fluorescence Polarization System (Invitrogen Corporation, Carlsbad, Calif.) fluorescence polarization spectrometer. […]
compound,measurement,setting,value
C/C1=C\[C@H](C)C[C@H](C)OC(=O)C[C@H](c2ccc(O)cc2)NC(=O)[C@@H](Cc2c(Br)[nH]c3ccccc23)N(C)C(=O)[C@H](C)NC(=O)[C@@H](C)C1 [Jasplakinolide],"delta mA max (STAFI, fluorescence anisotropy value at the plateau)","10 μM jasplakinolide added to polymerization medium, initial value 35 mA, NIH 3T3 65 mA",66 mA
same,Kobs (apparent constant of actin polymerization),"jasplakinolide added, NIH 3T3 EF alone 0.04, NIH 3T3 0.086",0.15
